Results taken from US20260014147A1, “STAT6 DEGRADERS” (Gilead Sciences, Inc., priority 2024, published 2026).

Legend:
[1] = biological target: T1, STAT6 (endogenous, HiBiT-tagged) in HeLa LgBiT clone 4.14 cells (Homo sapiens, UniProt P42226); experiment: STAT6 Degrader Assay (HiBiT based, HeLa LgBiT clone 4.14 cells, luminescence, DC50); assay type: cell-based; details: geometric mean; for DC50: DC50 provided for test compounds with >80% Emax, read-out: STAT6 degradation DC50; for Emax: Emax provided for test compounds with <80% Emax (and 2c15), read-out: STAT6 degradation Emax
T1 construct: These cells express endogenous STAT6; host or cells: HeLa LgBiT clone 4.14
T1 sequence (P42226 1-847): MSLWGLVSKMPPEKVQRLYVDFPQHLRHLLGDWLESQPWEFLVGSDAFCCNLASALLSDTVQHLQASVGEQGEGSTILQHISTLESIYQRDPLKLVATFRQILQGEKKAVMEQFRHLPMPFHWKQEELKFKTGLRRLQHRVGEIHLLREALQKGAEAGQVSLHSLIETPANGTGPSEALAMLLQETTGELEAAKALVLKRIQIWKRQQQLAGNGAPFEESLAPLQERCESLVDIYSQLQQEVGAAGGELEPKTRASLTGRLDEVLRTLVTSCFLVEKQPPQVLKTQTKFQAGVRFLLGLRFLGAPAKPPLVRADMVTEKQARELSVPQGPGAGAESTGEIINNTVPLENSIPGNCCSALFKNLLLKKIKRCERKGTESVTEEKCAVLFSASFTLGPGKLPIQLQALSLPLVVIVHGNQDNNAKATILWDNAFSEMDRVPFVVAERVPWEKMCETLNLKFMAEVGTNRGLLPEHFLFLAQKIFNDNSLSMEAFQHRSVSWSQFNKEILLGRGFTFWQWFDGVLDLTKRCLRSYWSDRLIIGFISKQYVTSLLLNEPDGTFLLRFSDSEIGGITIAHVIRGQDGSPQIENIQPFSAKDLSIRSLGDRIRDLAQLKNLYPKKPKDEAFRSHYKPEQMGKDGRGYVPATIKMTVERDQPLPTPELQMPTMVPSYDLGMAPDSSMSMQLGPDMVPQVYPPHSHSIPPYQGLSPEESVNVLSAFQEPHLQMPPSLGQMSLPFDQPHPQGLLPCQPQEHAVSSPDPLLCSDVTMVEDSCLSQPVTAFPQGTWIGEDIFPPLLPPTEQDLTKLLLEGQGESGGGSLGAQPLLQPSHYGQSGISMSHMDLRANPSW
Method in brief: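 Remaining STAT6 is read as NanoBiT luminescence after 0.5 h with Nano-Glo, in HeLa LgBiT clone 4.14 cells expressing endogenous HiBiT-tagged STAT6, following 4-24 h compound incubation at 37 °C. Full degradation is set by 50 µM terfenadine, which kills the cells; degradation plotted against log compound concentration.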

[2] = test system: Eotaxin-3 (CCL26) release in human whole blood stimulated with IL-4; experiment: Human Whole Blood Eotaxin-3 Assay (IL-4 stimulated, inhibition of eotaxin-3 release); assay type: cell-based; details: Homo sapiens, EC50 provided for test compounds with >80% Emax, geometric mean across assay runs and batches
Description: This was a human whole blood assay using recombinant human Interleukin 4 to stimulate the blood and measuring the ability of the test compounds to inhibit eotaxin-3 release. The biological activities of the test compounds have been tested in human whole blood stimulated with IL-4 measuring Eotaxin-3 release. The test compounds were added to 384 well clear flat-bottom plate in a 4-fold serial dilution in triplicates using a liquid handler. Human whole blood stabilized in lithium-heparin tubes was added in a volume of 65 uL per well, resulting in a final DMSO concentration of 0.5%. The plate is incubated for 2 h at 37° C. under 5% CO2/95% air. Subsequently, 5 μL of recombinant human IL-4 (R&D Systems, cat #204-ILB) was added to the wells to a final concentration of 400 pM. The plate was incubated for 48 h at 37° C. under 5% CO2/95% air. The plate was spun down for 10 minutes at 500×g and 20 uL supernatant was harvested and transferred to a 384 well v-bottom plate using a liquid handler and stored at −20° C. until further analysis. 10 uL supernatant was used to measure the level of Eotaxin-3 (CCL26) using Human Eotaxin-3 MSD kit from Mesocsale (Cat #K251UEK-4). The assay was performed according to the manufacture instructions.
The data from the human whole blood eotaxin-3 assay is shown below for Examples 2q11, 2110, and 2c49 (where the effect in % is plotted against the test concentration in M on a log-scale).

Row | SMILES | DC50 [1] | EC50 [2] | Emax [1]
1 | C[C@@H](c1cc2c(-c3ccc(N)cn3)ccnc2n1C)N1CCC(c2ccc(C(=O)N3CCC(CN4CCN(c5ccc(NC6CCC(=O)NC6=O)cc5F)CC4)CC3)cc2)CC1 (stereo partly drawn) [Example 2c33, 3-((4-(4-((1-(4-(1-((S)-1-(4-(5-aminopyridin-2-yl)-1-methyl-1H-pyrrolo[2,3-b]pyridin-2-yl)ethyl)-piperidin-4-yl)benzoyl)piperidin-4-yl)methyl)piperazin-1-yl)-3-fluorophenyl)amino)piperidine-2,6-dione] | 22.5 nM | 136 nM | –
2 | C[C@@H](c1cc2c(-c3ccc(NCCO)nc3)ccnc2n1C)N1CCC(c2ccc(C(=O)N3CCC(CN4CCN(c5ccc(NC6CCC(=O)NC6=O)cc5F)CC4)CC3)cc2)CC1 (stereo partly drawn) [Example 2c26, 3-((3-fluoro-4-(4-((1-(4-(1-((S)-1-(4-(6-((2-hydroxyethyl)amino)pyridin-3-yl)-1-methyl-1H-pyrrolo[2,3-b]pyridin-2-yl)ethyl)piperidin-4-yl)benzoyl)piperidin-4-yl)methyl)piperazin-1-yl)phenyl)-amino)piperidine-2,6-dione] | – | 188 nM | 60 to 70%
3 | C[C@@H](c1cc2c(-c3cnc(N)c(F)c3)ccnc2n1C)N1CCC(c2ccc(C(=O)N3CCC(CN4CCN(c5ccc(NC6CCC(=O)NC6=O)cc5F)CC4)CC3)cc2)CC1 (stereo partly drawn) [Example 2c24, 3-((4-(4-((1-(4-(1-((S)-1-(4-(6-amino-5-fluoropyridin-3-yl)-1-methyl-1H-pyrrolo[2,3-b]pyridin-2-yl)ethyl)piperidin-4-yl)benzoyl)piperidin-4-yl)methyl)piperazin-1-yl)-3-fluorophenyl)-amino)piperidine-2,6-dione] | 44.7 nM | 792 nM | –
4 | C[C@@H](c1cc2c(-c3ccc(N)nc3)ccnc2n1C)N1CCC(c2ccc(C(=O)N3CCC(CN4CCC(c5ccc(NC6CCC(=O)NC6=O)cc5F)C(F)(F)C4)CC3)cc2)CC1 (stereo partly drawn) [Example 2m2, 3-((4-(1-((1-(4-(1-((S)-1-(4-(6-aminopyridin-3-yl)-1-methyl-1H-pyrrolo[2,3-b]pyridin-2-yl)-ethyl)piperidin-4-yl)benzoyl)piperidin-4-yl)methyl)-3,3-difluoropiperidin-4-yl)-3-fluorophenyl)amino)-piperidine-2,6-dione] | – | 118 nM | 60 to 70%
5 | C[C@@H](c1cc2c(-c3ccc(N)nc3)ccnc2n1C)N1CCC(c2ccc(C(=O)N3CCC(CN4CCN(c5ncc(NC6CCC(=O)NC6=O)cc5F)CC4)CC3)cc2)CC1 (stereo partly drawn) [Example 2n10, 3-((6-(4-((1-(4-(1-((S)-1-(4-(6-aminopyridin-3-yl)-1-methyl-1H-pyrrolo[2,3-b]pyridin-2-yl)ethyl)-piperidin-4-yl)benzoyl)piperidin-4-yl)methyl)piperazin-1-yl)-5-fluoropyridin-3-yl)amino)-piperidine-2,6-dione] | – | 131 nM | 70 to 80%
6 | Cn1c(CN2CCC(c3ccc(C(=O)N4CCn5nc(CN6CCC(c7ccc(NC8CCC(=O)NC8=O)cc7F)CC6)cc5C4)cc3)CC2)cc2c(-c3ccc(N)nc3)ccnc21 (centres unmarked) [Example 2q4, 3-((4-(1-((5-(4-(1-((4-(6-aminopyridin-3-yl)-1-methyl-1H-pyrrolo[2,3-b]pyridin-2-yl)methyl)-piperidin-4-yl)benzoyl)-4,5,6,7-tetrahydropyrazolo[1,5-a]pyrazin-2-yl)methyl)piperidin-4-yl)-3-fluoro-phenyl)amino)piperidine-2,6-dione] | – | 73.5 nM | 70 to 80%

Stronger by EC50 [2], values ahead:

Row | DC50 [1] | EC50 [2] | Emax [1] | SMILES
7 | 2.7 nM | 11.3 nM | – | Cn1c(CN2CCC(c3ccc(C(=O)N4CCn5nc(CN6CCC(c7ccc(NC8CCC(=O)NC8=O)cc7F)CC6)cc5C4)cc3)CC2)cc2c(-c3ccc4[nH]ncc4c3)ccnc21 (centres unmarked) [Example 2q3, 3-((4-(1-((5-(4-(1-((4-(1H-indazol-5-yl)-1-methyl-1H-pyrrolo[2,3-b]pyridin-2-yl)methyl)-piperidin-4-yl)benzoyl)-4,5,6,7-tetrahydropyrazolo[1,5-a]pyrazin-2-yl)methyl)piperidin-4-yl)-3-fluorophenyl)amino)piperidine-2,6-dione]
8 | 2.6 nM | 2.4 nM | – | COCc1nc2cc(-c3ccnc4c3cc(CN3CCC(c5ccc(C(=O)N6CCn7nc(CN8CCC(c9ccc(NC%10CCC(=O)NC%10=O)cc9F)CC8)cc7C6)cc5)CC3)n4C)ccc2[nH]1 (centres unmarked) [Example 2q7, 3-((3-fluoro-4-(1-((5-(4-(1-((4-(2-(methoxymethyl)-1H-benzo[d]imidazol-5-yl)-1-methyl-1H-pyrrolo[2,3-b]pyridin-2-yl)methyl)piperidin-4-yl)benzoyl)-4,5,6,7-tetrahydropyrazolo[1,5-a]pyrazin-2-yl)-methyl)piperidin-4-yl)phenyl)amino)piperidine-2,6-dione]
9 | 1 nM | 2.3 nM | – | C[C@@H](c1cc2c(-c3ccc(N)nc3)ccnc2n1C)N1CCC(c2ccc(C(=O)N3CCn4nc(CN5CCC(c6ccc(NC7CCC(=O)NC7=O)cc6F)CC5)cc4C3)cc2)CC1 (stereo partly drawn) [Example 2q5, 3-((4-(1-((5-(4-(1-((S)-1-(4-(6-aminopyridin-3-yl)-1-methyl-1H-pyrrolo[2,3-b]pyridin-2-yl)ethyl)-piperidin-4-yl)benzoyl)-4,5,6,7-tetrahydropyrazolo[1,5-a]pyrazin-2-yl)methyl)piperidin-4-yl)-3-fluorophenyl)-amino)piperidine-2,6-dione]
10 | 6 nM | 59.5 nM | – | COCc1nc2cc(-c3ccnc4c3cc([C@H](C)N3CCC(c5ccc(C(=O)N6CCC(CN7CCN(c8ncc(NC9CCC(=O)NC9=O)cc8F)C[C@H]7C)CC6)cc5)CC3)n4C)ccc2[nH]1 (some centres unmarked) [Example 3t5]
11 | 2.9 nM | 26.7 nM | – | C[C@@H](c1cc2c(-c3ccc(N)nc3)ccnc2n1C)N1CCC(c2ccc(C(=O)N3CCn4nc(CN5CCC(c6ccc(NC7CCC(=O)NC7=O)cc6F)C(F)(F)C5)cc4C3)cc2)CC1 (stereo partly drawn) [Example 2q9, 3-((4-(1-((5-(4-(1-((S)-1-(4-(6-aminopyridin-3-yl)-1-methyl-1H-pyrrolo[2,3-b]pyridin-2-yl)-ethyl)piperidin-4-yl)benzoyl)-4,5,6,7-tetrahydropyrazolo[1,5-a]pyrazin-2-yl)methyl)-3,3-difluoro-piperidin-4-yl)-3-fluorophenyl)amino)piperidine-2,6-dione]
12 | 3.9 nM | 30.7 nM | – | COCc1nc2cc(-c3ccnc4c3cc([C@H](C)N3CCC(c5ccc(C(=O)N6CCC(CN7CCN(c8ccc(N[C@@H]9CCC(=O)NC9=O)cc8F)CC7)CC6)cc5)CC3)n4C)ccc2[nH]1 (single isomer, unassigned) [Example 2c52]
13 | 9.6 nM | 49.2 nM | – | C[C@@H](c1cc2c(-c3ccc(N)nc3)ccnc2n1C)N1CCC(c2ccc(C(=O)N3CCC(F)(CN4CCN(c5ccc(NC6CCC(=O)NC6=O)cc5F)CC4)CC3)cc2)CC1 (stereo partly drawn) [Example 2c23, 3-((4-(4-((1-(4-(1-((S)-1-(4-(6-aminopyridin-3-yl)-1-methyl-1H-pyrrolo[2,3-b]pyridin-2-yl)ethyl)-piperidin-4-yl)benzoyl)-4-fluoropiperidin-4-yl)methyl)piperazin-1-yl)-3-fluorophenyl)amino)-piperidine-2,6-dione]
